Measured values: ChEMBL document CHEMBL1139094, “The synthesis and structure-activity relationship studies of selective acetyl-CoA carboxylase inhibitors containing 4-(thiazol-5-yl)but-3-yn-2-amino motif: polar region modifications” (Bioorg Med Chem Lett, 2007)

What was measured:
[1] = biological target: Acetyl-CoA carboxylase 2 (Homo sapiens, UniProt O00763); assay: Inhibition of ACC2
[2] = biological target: Acetyl-CoA carboxylase 1 (Homo sapiens, UniProt Q13085); assay: Inhibition of ACC1
[3] = species: Homo sapiens; assay: Selectivity for human ACC2 over ACC1

Acetyl-CoA carboxylase 2, sequence (O00763 whole entry): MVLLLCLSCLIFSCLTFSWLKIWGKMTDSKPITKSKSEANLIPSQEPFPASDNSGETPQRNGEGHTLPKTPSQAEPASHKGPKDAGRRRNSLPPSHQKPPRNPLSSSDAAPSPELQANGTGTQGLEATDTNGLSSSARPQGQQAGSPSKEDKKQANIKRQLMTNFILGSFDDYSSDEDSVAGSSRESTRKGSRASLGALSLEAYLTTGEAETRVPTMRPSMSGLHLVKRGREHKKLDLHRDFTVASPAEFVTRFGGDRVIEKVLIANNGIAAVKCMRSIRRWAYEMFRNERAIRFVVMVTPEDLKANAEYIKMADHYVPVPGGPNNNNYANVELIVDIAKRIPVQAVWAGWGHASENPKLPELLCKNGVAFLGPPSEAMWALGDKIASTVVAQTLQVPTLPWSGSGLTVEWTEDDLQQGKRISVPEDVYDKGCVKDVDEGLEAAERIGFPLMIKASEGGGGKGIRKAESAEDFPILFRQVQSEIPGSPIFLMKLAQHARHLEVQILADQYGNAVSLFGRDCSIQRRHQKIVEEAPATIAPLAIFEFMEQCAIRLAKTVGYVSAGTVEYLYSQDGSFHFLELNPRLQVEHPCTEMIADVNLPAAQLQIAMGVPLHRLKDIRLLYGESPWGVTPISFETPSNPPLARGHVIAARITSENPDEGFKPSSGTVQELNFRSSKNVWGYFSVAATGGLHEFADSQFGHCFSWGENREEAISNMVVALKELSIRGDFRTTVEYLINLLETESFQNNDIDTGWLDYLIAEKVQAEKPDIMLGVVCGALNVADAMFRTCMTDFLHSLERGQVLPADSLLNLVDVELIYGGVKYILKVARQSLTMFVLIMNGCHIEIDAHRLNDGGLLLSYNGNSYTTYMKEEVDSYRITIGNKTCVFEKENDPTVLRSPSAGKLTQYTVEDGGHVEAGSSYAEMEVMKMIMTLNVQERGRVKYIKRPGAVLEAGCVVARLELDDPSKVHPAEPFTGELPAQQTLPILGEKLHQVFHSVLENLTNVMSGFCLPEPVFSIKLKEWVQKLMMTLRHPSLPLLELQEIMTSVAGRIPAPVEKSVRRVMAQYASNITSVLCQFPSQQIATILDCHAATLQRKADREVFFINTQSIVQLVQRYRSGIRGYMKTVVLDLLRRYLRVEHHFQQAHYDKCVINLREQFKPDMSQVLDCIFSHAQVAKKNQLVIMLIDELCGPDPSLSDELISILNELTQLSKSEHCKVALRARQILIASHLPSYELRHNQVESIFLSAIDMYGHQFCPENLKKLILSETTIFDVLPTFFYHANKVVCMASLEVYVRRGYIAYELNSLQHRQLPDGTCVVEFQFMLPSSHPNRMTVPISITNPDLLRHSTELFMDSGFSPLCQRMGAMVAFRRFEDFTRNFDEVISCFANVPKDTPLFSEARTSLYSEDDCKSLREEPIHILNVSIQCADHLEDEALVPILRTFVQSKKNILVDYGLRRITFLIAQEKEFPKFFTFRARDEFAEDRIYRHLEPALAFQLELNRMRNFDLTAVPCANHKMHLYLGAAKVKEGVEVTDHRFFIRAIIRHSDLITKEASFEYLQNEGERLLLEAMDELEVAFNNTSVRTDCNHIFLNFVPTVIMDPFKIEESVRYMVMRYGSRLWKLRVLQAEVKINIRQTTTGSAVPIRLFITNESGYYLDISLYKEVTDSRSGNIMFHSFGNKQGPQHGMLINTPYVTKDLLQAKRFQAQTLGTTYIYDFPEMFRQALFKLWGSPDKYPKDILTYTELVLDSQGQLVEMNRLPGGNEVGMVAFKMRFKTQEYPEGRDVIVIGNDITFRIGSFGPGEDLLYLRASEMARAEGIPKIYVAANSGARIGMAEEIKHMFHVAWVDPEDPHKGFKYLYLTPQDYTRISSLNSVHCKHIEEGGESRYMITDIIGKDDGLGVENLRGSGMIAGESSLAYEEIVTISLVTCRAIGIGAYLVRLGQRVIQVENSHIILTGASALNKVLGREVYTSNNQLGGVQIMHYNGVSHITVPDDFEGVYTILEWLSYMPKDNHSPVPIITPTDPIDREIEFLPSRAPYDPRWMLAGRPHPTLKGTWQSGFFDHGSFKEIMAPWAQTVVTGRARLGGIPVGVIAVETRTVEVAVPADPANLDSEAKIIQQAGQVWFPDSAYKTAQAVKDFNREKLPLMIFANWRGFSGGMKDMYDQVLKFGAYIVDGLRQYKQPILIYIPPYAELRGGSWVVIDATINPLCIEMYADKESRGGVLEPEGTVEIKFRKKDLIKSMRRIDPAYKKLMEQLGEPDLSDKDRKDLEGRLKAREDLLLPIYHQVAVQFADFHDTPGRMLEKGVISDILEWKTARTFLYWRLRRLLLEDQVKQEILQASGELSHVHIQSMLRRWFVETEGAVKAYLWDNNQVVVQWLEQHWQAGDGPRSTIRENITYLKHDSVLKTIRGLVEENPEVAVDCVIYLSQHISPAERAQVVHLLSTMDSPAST

| Compound | IC50 [1] [nM] | IC50 [2] [nM] | Ratio IC50 [3] |
| --- | --- | --- | --- |
| CC(C#Cc1cnc(Oc2ccc(Oc3ccccc3)cc2)s1)Nc1ncc[nH]1 (stereo not drawn) | 3980 | > 30000 | – |
| COC(=O)C(=O)NC(C)C#Cc1cnc(Oc2ccc(OC(C)C)cc2)s1 (stereo not drawn) | 850 | > 30000 | – |
| Cc1noc(NC(C)C#Cc2cnc(Oc3ccc(Oc4ccccc4)cc3)s2)c1C (stereo not drawn) | 38 | > 30000 | – |
| CCn1ccc(NC(C)C#Cc2cnc(Oc3ccc(Oc4ccccc4)cc3)s2)n1 (stereo not drawn) | 440 | > 30000 | – |
| CC(C#Cc1cnc(Oc2ccc(Oc3ccccc3)cc2)s1)Nc1ccon1 (stereo not drawn) | 42 | 5020 | – |
| Cc1cc(NC(C)C#Cc2cnc(Oc3ccc(Oc4ccccc4)cc3)s2)no1 (stereo not drawn) | 83 | > 30000 | – |
| Cc1cc(NC(C)C#Cc2cnc(Oc3ccc(Oc4ccccc4)cc3)s2)on1 (stereo not drawn) | 57 | > 30000 | – |
| CC(C#Cc1cnc(Oc2ccc(Oc3ccccc3)cc2)s1)Nc1nccs1 (stereo not drawn) | 690 | 10700 | – |
| CC(C)CONC(=O)NC(C)C#Cc1cnc(Oc2ccc(OC(C)C)cc2)s1 (stereo not drawn) | 20500 | > 30000 | – |
| CCC(C#Cc1cnc(Oc2ccc(OC(C)C)cc2)s1)NC(C)=O (stereo not drawn) | 530 | > 30000 | – |
| CC(=O)NC(C#Cc1cnc(Oc2ccc(OC(C)C)cc2)s1)c1ccccc1 (stereo not drawn) | > 30000 | > 30000 | – |
| CC(C#Cc1cnc(Oc2ccc(OC(C)C)cc2)s1)NC(=O)NCC(N)=O (stereo not drawn) | 920 | > 30000 | – |
| CC(=O)NC(C#Cc1cnc(Oc2ccc(OC(C)C)cc2)s1)CO (stereo not drawn) | 910 | > 30000 | – |
| CC(C#Cc1cnc(Oc2ccc(Oc3ccccc3)cc2)s1)Nc1nc2ccccc2s1 (stereo not drawn) | > 30000 | > 30000 | – |
| CC(=O)NCC#Cc1cnc(Oc2ccc(OC(C)C)cc2)s1 | 1860 | – | – |
| CC(=O)NC(C)(C)C#Cc1cnc(Oc2ccc(OC(C)C)cc2)s1 | 500 | > 30000 | – |
| CC(C#Cc1cnc(Oc2ccc(Oc3ccccc3)cc2)s1)N(O)C(N)=O (stereo not drawn) | 75 | – | > 1000 |

The next lines start with the values.

| IC50 [1] [nM] | IC50 [2] [nM] | Ratio IC50 [3] | Compound |
| --- | --- | --- | --- |
| > 30000 | > 30000 | – | CC(C#Cc1cnc(Oc2ccc(OC(C)C)cc2)s1)NC(=O)[C@@H]1CCCN1 (stereo partly drawn) |
| 37 | > 30000 | – | CC(C#Cc1cnc(Oc2ccc(OC(C)C)cc2)s1)NC(N)=O (stereo not drawn) |
| 880 | – | – | CC(=O)NC(C#Cc1cnc(Oc2ccc(OC(C)C)cc2)s1)C1CC1 (stereo not drawn) |
| 220 | > 30000 | – | CC(C#Cc1cnc(Oc2ccc(OC(C)C)cc2)s1)NC(=O)C1CCOC1 (stereo not drawn) |
| 670 | > 30000 | – | CC(C#Cc1cnc(Oc2ccc(OC(C)C)cc2)s1)NC(=O)N1CCOCC1 (stereo not drawn) |
| 570 | > 30000 | – | CC(C#Cc1cnc(Oc2ccc(OC(C)C)cc2)s1)NC(=O)C1CCCC1 (stereo not drawn) |
| 32 | – | – | CNC(=O)NC(C)C#Cc1cnc(Oc2ccc(OC(C)C)cc2)s1 (stereo not drawn) |
| > 30000 | > 30000 | – | CC(C#Cc1cnc(Oc2ccc(OC(C)C)cc2)s1)NC(=O)C(=O)O (stereo not drawn) |
| 680 | > 30000 | – | CC(C#Cc1cnc(Oc2ccc(OC(C)C)cc2)s1)NC(=O)ON (stereo not drawn) |
| 71 | > 30000 | – | CC(C#Cc1cnc(Oc2ccc(OC(C)C)cc2)s1)NC(=O)N(C)C (stereo not drawn) |
| 330 | > 30000 | – | CC(C#Cc1cnc(Oc2ccc(OC(C)C)cc2)s1)NC(=O)NO (stereo not drawn) |
